Measured values published in patent US9452117B2 (priority 2011, dated 2016).

Columns and labels:
human skin cells = type: cell-based
[1] = system: Human skeletal muscle cells; type: cell-based
Large^myd mice = experiment: Body weight change and muscle weight of Large^myd mice; type: in vivo; conditions: 40 mg/kg body weight daily, not on weekends, 3 months
Description: The body weight change and muscle weight of treated Large^myd mice was also evaluated. Large^myd mice (at age of 10 weeks, male:female=1:1) received Compound D2 (40 mg/kg body weight) daily. No treatment on weekends. […] The muscle weight gain for the TA and EDL muscles are summarized below.

CCCC(CCC)CO[N+](=O)[O-] [Compound D2, 2-propylpentyl nitrate]
calcification (calcium-45 accumulation) (human skin cells): significant reduction | calcification (calcium-45 accumulation) [1]: reduce calcification | EDL muscle mass (Large^myd mice; control 0.015 ± 0.001): 0.017 ± 0.001 gram | TA muscle mass (Large^myd mice; control 0.048 ± 0.004): 0.054 ± 0.004 gram | Body weight increase (Large^myd mice; control 2%): 13%;
